Measured values: patent US20150105252A1, “SUBSTITUTED PYRAZOLES AS HERBICIDES” (E I DU PONT DE NEMOURS AND COMPANY, priority 2013, published 2015)

What was measured:
nutsedge, yellow = experiment: Test C preemergence; format: in vivo, Cyperus esculentus; conditions: preemergence; for Plant response rating, Nutsedge, Yellow: 125 g ai/ha, scale 0 to 100, 0 = no effect, 100 = complete control
Summary of the method: (§1)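 Herbicidal effect is expressed as percent visual control (0–100) judged against untreated plants 13 to 15 days after treatment in the greenhouse. Preemergence pots contained seeds in a soil–sand blend; postemergence plants, 2–18 cm tall, grew in peat-based planting medium.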

oilseed rape = experiment: Test C preemergence; format: in vivo, Brassica napus; conditions: preemergence; for Plant response rating, Oilseed Rape: 125 g ai/ha, scale 0 to 100, 0 = no effect, 100 = complete control
Summary of the method: as §1

velvetleaf [1] = experiment: Test A postemergence; format: in vivo, Abutilon theophrasti; conditions: Postemergence
Summary of the method: (§2)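 Visual injury rating, 0–100 (0 no effect, 100 complete control), vs untreated controls ~10 days after treatment in greenhouse. Pre: directed soil spray on seeded loam/sand. Post: 2–10 cm plants, 1–2 leaf stage. Formulation: non-phytotoxic solvent mix + surfactant.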

galium = experiment: Test C preemergence; format: in vivo, Galium aparine; conditions: preemergence; for Plant response rating, Galium: 125 g ai/ha, scale 0 to 100, 0 = no effect, 100 = complete control
Summary of the method: as §1

crabgrass, large [2] = experiment: Test A preemergence; format: in vivo, Digitaria sanguinalis; conditions: preemergence; for Crabgrass, Large plant response rating (0 to 100 scale): 125 g ai/ha, visual injury approx. 10 days after treatment; for Crabgrass, Large plant response rating: 500 g ai/ha, visual injury after approx. 10 days, 0 to 100 scale (0 no effect, 100 complete control)
Summary of the method: as §2

crabgrass, large [3] = experiment: Test A postemergence; format: in vivo, Digitaria sanguinalis
Summary of the method: as §2

morningglory [4] = experiment: Test A postemergence; format: in vivo, Ipomoea spp.; conditions: Postemergence
Summary of the method: as §2

ryegrass, Italian = experiment: Test C preemergence; format: in vivo, Lolium multiflorum; conditions: preemergence; for Plant response rating, Ryegrass, Italian: 125 g ai/ha, scale 0 to 100, 0 = no effect, 100 = complete control
Summary of the method: as §1

morningglory [5] = experiment: Test A preemergence; format: in vivo, Ipomoea spp.; conditions: preemergence; for Morningglory plant response rating (0 to 100 scale): 125 g ai/ha, visual injury approx. 10 days after treatment; for Morningglory plant response rating: 500 g ai/ha, visual injury after approx. 10 days, 0 to 100 scale (0 no effect, 100 complete control)
Summary of the method: as §2

velvetleaf [6] = experiment: Test A preemergence; format: in vivo, Abutilon theophrasti; conditions: preemergence; for Velvetleaf plant response rating (0 to 100 scale): 125 g ai/ha, visual injury approx. 10 days after treatment; for Velvetleaf plant response rating: 500 g ai/ha, visual injury after approx. 10 days, 0 to 100 scale (0 no effect, 100 complete control)
Summary of the method: as §2

sedge, umbrella = experiment: Test B flood; format: in vivo, Cyperus difformis; conditions: 250 g ai/ha, visual rating on 0 to 100 scale (0 no effect, 100 complete control), 13 to 15 days
Summary of the method: (§3)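 Response scored visually, 0–100 relative to controls, 13–15 days after the compound was applied into paddy water; plants were at the 2-leaf stage in pots kept flooded to 3 cm.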

wheat = experiment: Test A preemergence; format: in vivo, Triticum aestivum; conditions: preemergence; for Wheat plant response rating (0 to 100 scale): 125 g ai/ha, visual injury approx. 10 days after treatment; for Wheat plant response rating: 500 g ai/ha, visual injury after approx. 10 days, 0 to 100 scale (0 no effect, 100 complete control)
Summary of the method: as §2

barnyardgrass = experiment: Test B flood; format: in vivo, Echinochloa crus-galli; conditions: 250 g ai/ha, visual rating on 0 to 100 scale (0 no effect, 100 complete control), 13 to 15 days
Summary of the method: as §3

foxtail, giant = experiment: Test A postemergence; format: in vivo, Setaria faberii
Summary of the method: as §2

soybean = experiment: Test C preemergence; format: in vivo, Glycine max; conditions: preemergence; for Plant response rating, Soybean: 125 g ai/ha, scale 0 to 100, 0 = no effect, 100 = complete control
Summary of the method: as §1

[7] = 31 g ai/ha, visual rating, scale 0 to 100 (0 no effect, 100 complete control), 13 to 15 days
[8] = 62 g ai/ha, scale 0 to 100 (0 no effect, 100 complete control), 13 to 15 days
[9] = 250 g ai/ha, scale 0 to 100, 0 is no effect, 100 is complete control
[10] = 125 g ai/ha, 0 to 100 scale, 0 no effect, 100 complete control
[11] = 500 g ai/ha, 0 to 100 scale (0 no effect, 100 complete control)
[12] = Postemergence, 500 g ai/ha, 0 to 100 scale (0 no effect, 100 complete control)
[13] = postemergence, 125 g ai/ha, about 10 days, visual rating on 0 to 100 scale (0 no effect, 100 complete control)

CCNC(=O)c1cc(CC)n(Cc2ccnc(C(F)(F)F)c2)n1 [Compound 196]
Nutsedge, Yellow plant response rating (nutsedge, yellow; [7]): 15
Nutsedge, Yellow plant response rating (nutsedge, yellow; [8]): 65
Plant response rating, Nutsedge, Yellow (nutsedge, yellow; 13 to 15 days): 80
Nutsedge, Yellow plant response rating (nutsedge, yellow; [9]): 90
Oilseed Rape plant response rating (oilseed rape; [7]): 90
Oilseed Rape plant response rating (oilseed rape; [8]): 98
Plant response rating, Oilseed Rape (oilseed rape; 13 to 15 days): 100
Oilseed Rape plant response rating (oilseed rape; [9]): 100
Velvetleaf plant response rating (velvetleaf [1]; [10]): 80
Velvetleaf plant response rating (velvetleaf [1]; [11]): 100
Galium plant response rating (galium; [7]): 98
Galium plant response rating (galium; [8]): 95
Plant response rating, Galium (galium; 13 to 15 days): 100
Galium plant response rating (galium; [9]): 100
Crabgrass, Large plant response rating (0 to 100 scale) (crabgrass, large [2]): 100
Crabgrass, Large plant response rating (crabgrass, large [2]): 100
Crabgrass, Large plant response rating (crabgrass, large [3]; [12]): 100
Crabgrass, Large plant response rating (crabgrass, large [3]; [13]): 90
Morningglory plant response rating (morningglory [4]; [10]): 90
Morningglory plant response rating (morningglory [4]; [11]): 100
Ryegrass, Italian plant response rating (ryegrass, Italian; [7]): 30
Ryegrass, Italian plant response rating (ryegrass, Italian; [8]): 85
Plant response rating, Ryegrass, Italian (ryegrass, Italian; 13 to 15 days): 90
Ryegrass, Italian plant response rating (ryegrass, Italian; [9]): 90
Morningglory plant response rating (0 to 100 scale) (morningglory [5]): 100
Morningglory plant response rating (morningglory [5]): 100
Velvetleaf plant response rating (0 to 100 scale) (velvetleaf [6]): 80
Velvetleaf plant response rating (velvetleaf [6]): 100
Plant response rating, Sedge, Umbrella (sedge, umbrella): 70
Wheat plant response rating (0 to 100 scale) (wheat): 20
Wheat plant response rating (wheat): 100
Plant response rating, Barnyardgrass (barnyardgrass): 30
Foxtail, Giant plant response rating (foxtail, giant; [12]): 100
Foxtail, Giant plant response rating (foxtail, giant; [13]): 90
Soybean plant response rating (soybean; [7]): 40
Soybean plant response rating (soybean; [8]): 55
Plant response rating, Soybean (soybean; 13 to 15 days): 90
Soybean plant response rating (soybean; [9]): 98

Cc1cc(C(=O)NC(C)C)nn1Cc1ccnc(C(F)(F)F)c1 [Compound 197]
Nutsedge, Yellow plant response rating (nutsedge, yellow; [7]): 0
Nutsedge, Yellow plant response rating (nutsedge, yellow; [8]): 25
Plant response rating, Nutsedge, Yellow (nutsedge, yellow; 13 to 15 days): 75
Nutsedge, Yellow plant response rating (nutsedge, yellow; [9]): 85
Oilseed Rape plant response rating (oilseed rape; [7]): 80
Oilseed Rape plant response rating (oilseed rape; [8]): 95
Plant response rating, Oilseed Rape (oilseed rape; 13 to 15 days): 95
Oilseed Rape plant response rating (oilseed rape; [9]): 100
Velvetleaf plant response rating (velvetleaf [1]; [10]): 30
Velvetleaf plant response rating (velvetleaf [1]; [11]): 80
Galium plant response rating (galium; [7]): 90
Galium plant response rating (galium; [8]): 100
Plant response rating, Galium (galium; 13 to 15 days): 98
Galium plant response rating (galium; [9]): 95
Crabgrass, Large plant response rating (0 to 100 scale) (crabgrass, large [2]): 100
Crabgrass, Large plant response rating (crabgrass, large [2]): 100
Crabgrass, Large plant response rating (crabgrass, large [3]; [12]): 100
Crabgrass, Large plant response rating (crabgrass, large [3]; [13]): 80
Morningglory plant response rating (morningglory [4]; [10]): 80
Morningglory plant response rating (morningglory [4]; [11]): 100
Ryegrass, Italian plant response rating (ryegrass, Italian; [7]): 15
Ryegrass, Italian plant response rating (ryegrass, Italian; [8]): 35
Plant response rating, Ryegrass, Italian (ryegrass, Italian; 13 to 15 days): 85
Ryegrass, Italian plant response rating (ryegrass, Italian; [9]): 90
Morningglory plant response rating (0 to 100 scale) (morningglory [5]): 100
Morningglory plant response rating (morningglory [5]): 100
Velvetleaf plant response rating (0 to 100 scale) (velvetleaf [6]): 70
Velvetleaf plant response rating (velvetleaf [6]): 100
Plant response rating, Sedge, Umbrella (sedge, umbrella): 85
Wheat plant response rating (0 to 100 scale) (wheat): 0
Wheat plant response rating (wheat): 50
Plant response rating, Barnyardgrass (barnyardgrass): 10
Foxtail, Giant plant response rating (foxtail, giant; [12]): 90
Foxtail, Giant plant response rating (foxtail, giant; [13]): 80
Soybean plant response rating (soybean; [7]): 45
Soybean plant response rating (soybean; [8]): 80
Plant response rating, Soybean (soybean; 13 to 15 days): 98
Soybean plant response rating (soybean; [9]): 98

CCCNC(=O)c1cc(CCC)n(Cc2cc(C(F)(F)F)nn2C)n1 [Compound 198]
Nutsedge, Yellow plant response rating (nutsedge, yellow; [7]): 5
Nutsedge, Yellow plant response rating (nutsedge, yellow; [8]): 15
Plant response rating, Nutsedge, Yellow (nutsedge, yellow; 13 to 15 days): 30
Nutsedge, Yellow plant response rating (nutsedge, yellow; [9]): 65
Oilseed Rape plant response rating (oilseed rape; [7]): 95
Oilseed Rape plant response rating (oilseed rape; [8]): 100
Plant response rating, Oilseed Rape (oilseed rape; 13 to 15 days): 100
Oilseed Rape plant response rating (oilseed rape; [9]): 100
Velvetleaf plant response rating (velvetleaf [1]; [10]): 30
Velvetleaf plant response rating (velvetleaf [1]; [11]): 100
Galium plant response rating (galium; [7]): 98
Galium plant response rating (galium; [8]): 95
Plant response rating, Galium (galium; 13 to 15 days): 100
Galium plant response rating (galium; [9]): 100
Crabgrass, Large plant response rating (0 to 100 scale) (crabgrass, large [2]): 100
Crabgrass, Large plant response rating (crabgrass, large [2]): 100
Crabgrass, Large plant response rating (crabgrass, large [3]; [12]): 100
Crabgrass, Large plant response rating (crabgrass, large [3]; [13]): 90
Morningglory plant response rating (morningglory [4]; [10]): 80
Morningglory plant response rating (morningglory [4]; [11]): 100
Ryegrass, Italian plant response rating (ryegrass, Italian; [7]): 25
Ryegrass, Italian plant response rating (ryegrass, Italian; [8]): 70
Plant response rating, Ryegrass, Italian (ryegrass, Italian; 13 to 15 days): 90
Ryegrass, Italian plant response rating (ryegrass, Italian; [9]): 90
Morningglory plant response rating (0 to 100 scale) (morningglory [5]): 100
Morningglory plant response rating (morningglory [5]): 100
Velvetleaf plant response rating (0 to 100 scale) (velvetleaf [6]): 30
Velvetleaf plant response rating (velvetleaf [6]): 100
Plant response rating, Sedge, Umbrella (sedge, umbrella): 100
Wheat plant response rating (0 to 100 scale) (wheat): 60
Wheat plant response rating (wheat): 100
Plant response rating, Barnyardgrass (barnyardgrass): 60
Foxtail, Giant plant response rating (foxtail, giant; [12]): 100
Foxtail, Giant plant response rating (foxtail, giant; [13]): 90
Soybean plant response rating (soybean; [7]): 75
Soybean plant response rating (soybean; [8]): 90
Plant response rating, Soybean (soybean; 13 to 15 days): 98
Soybean plant response rating (soybean; [9]): 98

CCc1cc(C(=O)NCC2CC2)nn1Cc1ccnc(C(F)(F)F)c1 [Compound 199]
Nutsedge, Yellow plant response rating (nutsedge, yellow; [7]): 30
Nutsedge, Yellow plant response rating (nutsedge, yellow; [8]): 45
Plant response rating, Nutsedge, Yellow (nutsedge, yellow; 13 to 15 days): 80
Nutsedge, Yellow plant response rating (nutsedge, yellow; [9]): 85
Oilseed Rape plant response rating (oilseed rape; [7]): 80
Oilseed Rape plant response rating (oilseed rape; [8]): 95
Plant response rating, Oilseed Rape (oilseed rape; 13 to 15 days): 100
Oilseed Rape plant response rating (oilseed rape; [9]): 100
Velvetleaf plant response rating (velvetleaf [1]; [10]): 80
Velvetleaf plant response rating (velvetleaf [1]; [11]): 90
Galium plant response rating (galium; [7]): 40
Galium plant response rating (galium; [8]): 100
Plant response rating, Galium (galium; 13 to 15 days): 100
Galium plant response rating (galium; [9]): 100
Crabgrass, Large plant response rating (0 to 100 scale) (crabgrass, large [2]): 100
Crabgrass, Large plant response rating (crabgrass, large [2]): 100
Crabgrass, Large plant response rating (crabgrass, large [3]; [12]): 90
Crabgrass, Large plant response rating (crabgrass, large [3]; [13]): 90
Morningglory plant response rating (morningglory [4]; [10]): 90
Morningglory plant response rating (morningglory [4]; [11]): 100
Ryegrass, Italian plant response rating (ryegrass, Italian; [7]): 40
Ryegrass, Italian plant response rating (ryegrass, Italian; [8]): 85
Plant response rating, Ryegrass, Italian (ryegrass, Italian; 13 to 15 days): 90
Ryegrass, Italian plant response rating (ryegrass, Italian; [9]): 90
Morningglory plant response rating (0 to 100 scale) (morningglory [5]): 90
Morningglory plant response rating (morningglory [5]): 100
Velvetleaf plant response rating (0 to 100 scale) (velvetleaf [6]): 100
Velvetleaf plant response rating (velvetleaf [6]): 100
Plant response rating, Sedge, Umbrella (sedge, umbrella): 90
Wheat plant response rating (0 to 100 scale) (wheat): 90
Wheat plant response rating (wheat): 100
Plant response rating, Barnyardgrass (barnyardgrass): 55
Foxtail, Giant plant response rating (foxtail, giant; [12]): 90
Foxtail, Giant plant response rating (foxtail, giant; [13]): 90
Soybean plant response rating (soybean; [7]): 30
Soybean plant response rating (soybean; [8]): 55
Plant response rating, Soybean (soybean; 13 to 15 days): 90
Soybean plant response rating (soybean; [9]): 95
